Measured values taken from patent US7445897B2, “Sequence variants of multi-drug resistance genes, MDR1 and MRP1, and methods for assessment of drug penetration and disposition” (University of Washington, priority 2004, dated 2008).
Where two headings read alike, the source gives them in different places.

Assays:
MDR1 (1199A variant) = MDR1 (1199A variant) (Homo sapiens, UniProt P08183, G185V/S400N/S893A); assay: Intracellular uptake of HIV protease inhibitors; details: recombinant LLC-PK1 cells expressing MDR1-1199A
MDR1 (wild type) [1] = target: MDR1 (wild type) (Homo sapiens, UniProt P08183, G185V/S893A); assay: in vitro
LLC-PK1 control cells [2] = test system: LLC-PK1 control cells
[3] = van Heeswijk et al. 2001; cited from earlier work
LLC-PK1 control cells [4] = assay: Intracellular uptake of HIV protease inhibitors; type: in vitro ADME, porcine
[5] = test system: HEK negative control cells; assay: Cytotoxic drug sensitivity assay (MTS); type: cell-based, human; details: Homo sapiens, 72 h
[6] = test system: recombinant MDR1wt LLC-PK1 cells; assay: Cytotoxic drug sensitivity assay (3H-thymidine); type: cell-based, porcine; details: for EC50 fold-change from control: MDR1wt vs LLC-PK1 control; for EC50: Sus scrofa, 72 h, MDR1wt LLC-PK1 cells, 3 days with drug
Method: (§1) On the second day of the incubation, 1 μCi of ^3H-thymidine (specific activity: 81.1 Ci/mmole) was added to each well and incubated overnight. Cells were harvested on day 3 with a cell harvester.
(§2) Dose response analysis was performed for doxorubicin, vincristine and vinblastine. […] TRANSEPITHELIAL TRANSPORT

LLC-PK1 control cells [7] = assay: Cytotoxic drug sensitivity assay (3H-thymidine); type: cell-based, porcine; details: Sus scrofa, 72 h, 3 days with drug
Method: as §1, §2

[8] = test system: recombinant MDR11199 LLC-PK1 cells; assay: Cytotoxic drug sensitivity assay (3H-thymidine); type: cell-based, porcine; details: for EC50 fold-change from control: MDR11199 vs LLC-PK1 control; for EC50: Sus scrofa, 72 h, MDR11199 LLC-PK1 cells, 3 days with drug; for resistance of MDR11199 cells relative to MDR1wt cells: MDR11199 vs MDR1wt, from EC50; for resistance of MDR11199 cells compared with MDR1wt cells: cytotoxicity studies, LLC-PK1
Method: as §1, §2

MDR1 (G1199A variant) = assay: in vitro; details: human; for EC50 at 72 h: HEK293 cells recombinantly expressing MDR1 G1199A
MDR1 (wild type) [9] = assay: Cytotoxic drug sensitivity assay (MTS); type: cell-based, human; details: human, HEK293 cells recombinantly expressing MDR1 wild type
MDR1 (G1199T variant) = assay: Cytotoxic drug sensitivity assay (MTS); type: cell-based, human; details: human, HEK293 cells recombinantly expressing MDR1 G1199T
[10] = test system: P-gp (MDR11199, G1199A) in recombinant LLC-PK1 cells; details: human, LLC-PK1
rMRP1 [11] = target: T1, rMRP1 (Rattus norvegicus, UniProt Q8CG09); assay: Calcein efflux in rMRP1-expressing MDCK-II cells; type: cell-based; details: indomethacin 100 μM, MK571 10 μM
T1 construct: expressed in transfected cells
From the text: These recombinant cells were derived from MDCK-II epithelial cells that form tight junctions, suitable for transepithelial transport assessment. Several stable clones of epithelial cells that consistently express rMRP1 were constructed, which could be differentiated to form a polarized monolayer for transepithelial flux studies. […] The cells that consistently over-expressed rMRP1 were expanded from a single cell clone and analyzed for MRP1 function.

rMRP1 [12] = target: T1, rMRP1; assay: Transepithelial transport in differentiated rMRP1-MDCK cells; type: in vitro ADME
From the text: These stable recombinant cells can be used to evaluate drug candidates that are either MRP1 substrates or inhibitors, as well as further elucidate MRP1 structure and function.

[13] = target: T2, MDR1wt in recombinant HEK cells (Homo sapiens, UniProt P08183, G185V/S893A); assay: Intracellular levels of Rhodamine123 in HEK cells; type: cell-based
T2 construct: full-length MDR1 cDNA was generated using the high-fidelity protocol developed previously; expressed in transfected cells

[14] = target: T3, MDR1G1199T in recombinant HEK cells (Homo sapiens, UniProt P08183, G185V/S400I/S893A); assay: Intracellular levels of Rhodamine123 in HEK cells; type: cell-based
T3 construct: full-length MDR1 cDNA was generated using the high-fidelity protocol developed previously; expressed in transfected cells

[15] = target: T4, MDR1G1199A in recombinant HEK cells (Homo sapiens, UniProt P08183, G185V/S400N/S893A); assay: Intracellular levels of Rhodamine123 in HEK cells; type: cell-based
T4 construct: full-length MDR1 cDNA was generated using the high-fidelity protocol developed previously; expressed in transfected cells

HEK293 control cells = assay: Intracellular levels of Rhodamine123 in HEK cells; type: cell-based, human
[16] = protease inhibitor + GF120918 (1 μM)
[17] = HEK Control, 72hours, MTS, read-out: EC50 (Mean ± S.D.)
[18] = HEK MDR1 WT, 72hours, MTS, read-out: EC50 (Mean ± S.D.)
[19] = HEK MDR1 G1199T, 72hours, MTS, read-out: EC50 (Mean ± S.D.)
[20] = 0.5 uM, 30 min load, 30 min efflux

T2 sequence (P08183 whole entry G185V/S893A): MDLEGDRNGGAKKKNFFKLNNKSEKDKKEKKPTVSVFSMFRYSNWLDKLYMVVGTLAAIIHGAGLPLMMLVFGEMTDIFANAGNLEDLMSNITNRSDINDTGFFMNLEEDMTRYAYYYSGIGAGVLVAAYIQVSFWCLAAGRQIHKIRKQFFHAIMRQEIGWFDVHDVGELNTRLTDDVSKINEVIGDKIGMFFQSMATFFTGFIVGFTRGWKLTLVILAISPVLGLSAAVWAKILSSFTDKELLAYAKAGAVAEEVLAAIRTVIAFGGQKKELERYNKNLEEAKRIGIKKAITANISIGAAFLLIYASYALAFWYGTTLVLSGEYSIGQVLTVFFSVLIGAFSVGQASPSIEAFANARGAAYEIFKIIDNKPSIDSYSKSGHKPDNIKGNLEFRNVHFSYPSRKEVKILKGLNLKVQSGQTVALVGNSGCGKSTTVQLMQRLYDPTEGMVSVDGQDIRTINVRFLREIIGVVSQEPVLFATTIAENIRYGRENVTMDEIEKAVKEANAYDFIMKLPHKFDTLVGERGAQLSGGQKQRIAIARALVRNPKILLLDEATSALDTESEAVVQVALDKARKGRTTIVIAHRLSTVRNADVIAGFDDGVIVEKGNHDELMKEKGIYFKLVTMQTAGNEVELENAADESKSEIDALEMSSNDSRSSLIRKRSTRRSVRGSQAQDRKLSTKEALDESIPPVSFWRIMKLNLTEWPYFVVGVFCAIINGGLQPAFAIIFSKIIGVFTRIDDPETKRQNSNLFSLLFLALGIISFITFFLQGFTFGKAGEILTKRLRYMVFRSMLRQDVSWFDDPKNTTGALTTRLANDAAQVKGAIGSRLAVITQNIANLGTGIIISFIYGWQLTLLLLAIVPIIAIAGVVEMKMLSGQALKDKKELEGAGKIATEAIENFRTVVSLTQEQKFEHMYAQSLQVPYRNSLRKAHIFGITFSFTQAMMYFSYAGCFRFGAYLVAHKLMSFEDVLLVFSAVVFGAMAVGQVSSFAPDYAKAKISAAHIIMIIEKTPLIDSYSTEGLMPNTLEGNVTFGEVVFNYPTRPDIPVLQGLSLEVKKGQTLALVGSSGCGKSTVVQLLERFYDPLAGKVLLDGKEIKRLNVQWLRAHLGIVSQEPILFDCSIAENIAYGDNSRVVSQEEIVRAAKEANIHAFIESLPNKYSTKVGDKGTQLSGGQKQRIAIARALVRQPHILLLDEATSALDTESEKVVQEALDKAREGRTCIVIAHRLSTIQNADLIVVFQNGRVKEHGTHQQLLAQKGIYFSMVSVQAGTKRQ
T3 sequence (P08183 whole entry G185V/S400I/S893A): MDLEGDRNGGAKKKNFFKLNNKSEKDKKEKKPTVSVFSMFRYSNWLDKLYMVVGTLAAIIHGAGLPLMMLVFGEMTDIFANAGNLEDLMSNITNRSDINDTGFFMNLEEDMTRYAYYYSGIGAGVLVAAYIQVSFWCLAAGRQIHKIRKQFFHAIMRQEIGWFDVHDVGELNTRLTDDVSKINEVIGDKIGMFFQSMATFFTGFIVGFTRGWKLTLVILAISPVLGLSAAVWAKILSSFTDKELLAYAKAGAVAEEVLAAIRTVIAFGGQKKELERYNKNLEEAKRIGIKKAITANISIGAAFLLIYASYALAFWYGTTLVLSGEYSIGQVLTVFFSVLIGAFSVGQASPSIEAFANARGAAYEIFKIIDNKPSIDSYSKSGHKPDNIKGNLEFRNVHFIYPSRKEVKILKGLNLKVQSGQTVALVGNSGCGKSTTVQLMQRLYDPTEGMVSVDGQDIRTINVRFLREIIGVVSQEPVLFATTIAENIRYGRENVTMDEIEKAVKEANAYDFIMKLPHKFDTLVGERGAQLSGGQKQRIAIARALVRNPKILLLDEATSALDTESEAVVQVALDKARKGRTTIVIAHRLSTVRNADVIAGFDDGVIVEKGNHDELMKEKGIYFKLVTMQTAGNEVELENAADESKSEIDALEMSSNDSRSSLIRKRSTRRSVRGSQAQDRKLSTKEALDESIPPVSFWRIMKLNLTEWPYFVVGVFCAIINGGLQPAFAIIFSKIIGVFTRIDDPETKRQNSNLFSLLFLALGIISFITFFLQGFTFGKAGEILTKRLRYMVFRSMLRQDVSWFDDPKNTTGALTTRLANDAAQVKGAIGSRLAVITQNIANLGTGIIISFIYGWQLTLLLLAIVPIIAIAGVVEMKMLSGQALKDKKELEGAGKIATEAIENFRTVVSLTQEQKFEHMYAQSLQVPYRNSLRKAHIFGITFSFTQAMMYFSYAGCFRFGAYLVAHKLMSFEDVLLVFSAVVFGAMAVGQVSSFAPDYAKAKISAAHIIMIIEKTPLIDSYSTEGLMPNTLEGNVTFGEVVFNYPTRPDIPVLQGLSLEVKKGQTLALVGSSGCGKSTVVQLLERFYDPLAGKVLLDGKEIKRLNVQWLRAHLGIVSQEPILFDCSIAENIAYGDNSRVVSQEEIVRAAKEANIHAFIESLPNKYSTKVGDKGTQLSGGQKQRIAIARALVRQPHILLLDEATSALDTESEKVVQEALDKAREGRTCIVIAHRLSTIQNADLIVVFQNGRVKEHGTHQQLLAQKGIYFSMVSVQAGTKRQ
T1 sequence (Q8CG09 whole entry): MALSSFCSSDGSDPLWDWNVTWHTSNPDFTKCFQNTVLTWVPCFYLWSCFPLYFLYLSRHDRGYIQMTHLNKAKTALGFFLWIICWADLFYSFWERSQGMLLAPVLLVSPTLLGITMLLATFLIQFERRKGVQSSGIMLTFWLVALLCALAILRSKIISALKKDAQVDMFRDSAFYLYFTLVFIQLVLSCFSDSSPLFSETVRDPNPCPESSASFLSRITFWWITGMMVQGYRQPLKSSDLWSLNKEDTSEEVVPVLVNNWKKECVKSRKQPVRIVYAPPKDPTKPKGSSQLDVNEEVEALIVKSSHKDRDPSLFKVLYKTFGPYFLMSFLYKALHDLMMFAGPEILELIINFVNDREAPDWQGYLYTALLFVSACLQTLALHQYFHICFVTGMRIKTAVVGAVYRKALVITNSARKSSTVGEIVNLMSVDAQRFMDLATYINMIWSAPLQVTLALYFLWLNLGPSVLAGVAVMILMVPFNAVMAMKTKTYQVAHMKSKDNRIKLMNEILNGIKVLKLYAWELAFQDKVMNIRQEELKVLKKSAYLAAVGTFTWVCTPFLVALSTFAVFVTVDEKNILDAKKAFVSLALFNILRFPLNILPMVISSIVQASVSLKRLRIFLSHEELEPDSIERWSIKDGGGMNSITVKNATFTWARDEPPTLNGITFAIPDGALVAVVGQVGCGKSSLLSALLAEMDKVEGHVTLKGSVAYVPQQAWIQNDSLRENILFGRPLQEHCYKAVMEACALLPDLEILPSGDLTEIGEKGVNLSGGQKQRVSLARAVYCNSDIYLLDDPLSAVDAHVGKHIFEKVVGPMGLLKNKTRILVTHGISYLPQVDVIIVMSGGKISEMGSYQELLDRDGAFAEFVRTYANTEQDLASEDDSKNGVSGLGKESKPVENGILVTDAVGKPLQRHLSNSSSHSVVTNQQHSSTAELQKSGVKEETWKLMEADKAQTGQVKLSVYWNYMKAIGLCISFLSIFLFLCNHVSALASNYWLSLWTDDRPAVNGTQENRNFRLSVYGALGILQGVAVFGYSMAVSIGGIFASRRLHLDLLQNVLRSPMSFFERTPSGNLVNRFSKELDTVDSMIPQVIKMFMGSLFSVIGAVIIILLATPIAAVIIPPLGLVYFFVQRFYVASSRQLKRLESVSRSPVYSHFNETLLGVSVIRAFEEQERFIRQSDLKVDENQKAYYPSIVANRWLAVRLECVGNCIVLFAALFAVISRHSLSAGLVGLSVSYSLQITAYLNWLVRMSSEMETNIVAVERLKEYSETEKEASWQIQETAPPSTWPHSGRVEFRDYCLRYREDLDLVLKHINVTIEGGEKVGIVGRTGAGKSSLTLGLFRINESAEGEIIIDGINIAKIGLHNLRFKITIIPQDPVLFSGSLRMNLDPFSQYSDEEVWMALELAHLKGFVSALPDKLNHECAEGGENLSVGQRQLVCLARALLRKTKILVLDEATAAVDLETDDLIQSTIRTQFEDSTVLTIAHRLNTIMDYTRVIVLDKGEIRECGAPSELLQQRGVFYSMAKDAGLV

## CC(C)CN(C[C@@H](O)[C@H](Cc1ccccc1)NC(=O)O[C@H]1CCOC1)S(=O)(=O)c1ccc(N)cc1 [amprenavir]
MDR1 (1199A variant)
  Km: 1 µM
MDR1 (wild type) [1]
  Km: 10.2 µM
LLC-PK1 control cells [2]; [16]
  Rate of transfer dQ/dt ± s.d., A → B: 10.8 ± 0.9
  Rate of transfer dQ/dt ± s.d., B → A: 10.2 ± 0.4
LLC-PK1 control cells [2]; protease inhibitor alone, 5 μM
  Rate of transfer dQ/dt ± s.d., A → B: 9.33 ± 0.46
  Rate of transfer dQ/dt ± s.d., B → A: 11.6 ± 0.8
[3]
  oral bioavailability in systemic circulation: 35-90%
LLC-PK1 control cells [4]
  Km: 0.25 µM
  Vmax: 0.048 pmole/min*10^6 cells

## COc1cccc2c1C(=O)c1c(O)c3c(c(O)c1C2=O)C[C@@](O)(C(=O)CO)C[C@@H]3O[C@H]1C[C@H](N)[C@H](O)[C@H](C)O1 [doxorubicin]
[5]; [17]
  EC50: 0.0455 ± 0.0251 µM
[6]
  EC50 fold-change from control: 4.53 fold
  EC50: 0.155 ± 0.068 µM
LLC-PK1 control cells [7]
  EC50: 0.0342 ± 0.0031 µM
[8]
  EC50 fold-change from control: 3.51 fold
  EC50: 0.12 ± 0.032 µM
MDR1 (G1199A variant)
  EC50: 2.18 ± 0.361 µM
MDR1 (wild type) [9]; [18]
  EC50 at 72 h: 1.11 ± 0.112 µM
MDR1 (G1199T variant); [19]
  EC50 at 72 h: 0.383 ± 0.039 µM

## CC(C)(C)NC(=O)[C@@H]1CN(Cc2cccnc2)CCN1C[C@@H](O)C[C@@H](Cc1ccccc1)C(=O)N[C@H]1c2ccccc2C[C@H]1O [indinavir]
LLC-PK1 control cells [2]; [16]
  Rate of transfer dQ/dt ± s.d., A → B: 4.26 ± 0.25
  Rate of transfer dQ/dt ± s.d., B → A: 5.99 ± 0.11
LLC-PK1 control cells [2]; protease inhibitor alone, 5 μM
  Rate of transfer dQ/dt ± s.d., A → B: 7.17 ± 0.03
  Rate of transfer dQ/dt ± s.d., B → A: 6.69 ± 0.21
[3]
  oral bioavailability in systemic circulation: 70%
[10]
  decrease in apical-to-basolateral flux in MDR11199 cells compared to MDR1wt cells: 1.9 fold

## COc1ccc2c(c1)c(CC(=O)O)c(C)n2C(=O)c1ccc(Cl)cc1 [indomethacin]
rMRP1 [11]
  effect of MRP1 inhibitor on calcein efflux: suppressed efflux transport of calcein back to the control level

## Cc1cccc(C)c1OCC(=O)N[C@@H](Cc1ccccc1)[C@@H](O)C[C@H](Cc1ccccc1)NC(=O)[C@H](C(C)C)N1CCCNC1=O [lopinavir]
LLC-PK1 control cells [2]; [16]
  Rate of transfer dQ/dt ± s.d., A → B: 8.48 ± 0.16
LLC-PK1 control cells [2]; protease inhibitor alone, 5 μM
  Rate of transfer dQ/dt ± s.d., A → B: 9.21 ± 0.24
[10]
  decrease in apical-to-basolateral flux in MDR11199 cells compared to MDR1wt cells: 1.6 fold

## Cc1c(O)cccc1C(=O)N[C@@H](CSc1ccccc1)[C@H](O)CN1C[C@H]2CCCC[C@H]2C[C@H]1C(=O)NC(C)(C)C [nelfinavir]
[3]
  oral bioavailability in systemic circulation: 70-80%

## CC(=O)O[C@H]1C(=O)[C@@]2(C)[C@H]([C@H](OC(=O)c3ccccc3)[C@]3(O)C[C@H](OC(=O)[C@H](O)[C@@H](NC(=O)c4ccccc4)c4ccccc4)C(C)=C1C3(C)C)[C@]1(OC(C)=O)CO[C@@H]1C[C@@H]2O [paclitaxel]
[5]; [17]
  EC50: 0.00267 ± 0.00013 µM
MDR1 (wild type) [9]; [18]
  EC50 at 72 h: 0.128 ± 0.05 µM
MDR1 (G1199T variant); [19]
  EC50 at 72 h: 0.0427 ± 0.0127 µM

## CC(C)c1nc(CN(C)C(=O)N[C@H](C(=O)N[C@@H](Cc2ccccc2)C[C@H](O)[C@H](Cc2ccccc2)NC(=O)OCc2cncs2)C(C)C)cs1 [ritonavir]
LLC-PK1 control cells [2]; [16]
  Rate of transfer dQ/dt ± s.d., A → B: 6.46 ± 0.69
  Rate of transfer dQ/dt ± s.d., B → A: 9.60 ± 0.75
LLC-PK1 control cells [2]; protease inhibitor alone, 5 μM
  Rate of transfer dQ/dt ± s.d., A → B: 6.46 ± 0.94
  Rate of transfer dQ/dt ± s.d., B → A: 11.0 ± 0.5
[3]
  oral bioavailability in systemic circulation: 60-80%
LLC-PK1 control cells [4]
  Km: 0.25 µM
[10]
  decrease in apical-to-basolateral flux in MDR11199 cells compared to MDR1wt cells: 2.3 fold
  increase in basolateral-to-apical efflux in MDR11199 cells compared to MDR1wt: 1.2 fold

## CC[C@]1(O)C[C@@H]2CN(CCc3c([nH]c4ccccc34)[C@@](C(=O)OC)(c3cc4c(cc3OC)N(C)[C@H]3[C@@](O)(C(=O)OC)[C@H](OC(C)=O)[C@]5(CC)C=CCN6CC[C@]43[C@@H]65)C2)C1 [vinblastine]
[5]; [17]
  EC50: 0.00145 ± 0.00023 µM
[6]
  EC50 fold-change from control: 2.14 fold
  EC50: 0.00141 ± 0.00051 µM
LLC-PK1 control cells [7]
  EC50: 0.00066 ± 0.00022 µM
[8]
  EC50 fold-change from control: 23.8 fold
  resistance of MDR11199 cells relative to MDR1wt cells: about 11 fold
  EC50: 0.0157 µM
  resistance of MDR11199 cells compared with MDR1wt cells: more resistant
rMRP1 [12]
  directional transepithelial transport: exhibit directional transepithelial transport
MDR1 (G1199A variant)
  EC50: 0.243 ± 0.0151 µM
MDR1 (wild type) [9]; [18]
  EC50 at 72 h: 0.127 ± 0.013 µM
MDR1 (G1199T variant); [19]
  EC50 at 72 h: 0.0547 ± 0.00799 µM

## CC[C@]1(O)C[C@H]2CN(CCc3c([nH]c4ccccc34)[C@@](C(=O)OC)(c3cc4c(cc3OC)N(C=O)[C@H]3[C@@](O)(C(=O)OC)[C@H](OC(C)=O)[C@]5(CC)C=CCN6CC[C@]43[C@@H]65)C2)C1 [vincristine]
[5]; [17]
  EC50: 0.0102 ± 0.00104 µM
[5]; HEK negative control, 0 month, 72 hours, read-out: EC50 for cell growth inhibition
  EC50: 0.00401 ± 0.00129 µM
[5]; HEK negative control, 1 months, 72 hours, read-out: EC50 for cell growth inhibition
  EC50: 0.00668 ± 0.000448 µM
[5]; HEK negative control, 2 months, 72 hours, read-out: EC50 for cell growth inhibition
  EC50: 0.0102 ± 0.00104 µM
[6]
  EC50 fold-change from control: 3.19 fold
  EC50: 0.00118 ± 0.00056 µM
LLC-PK1 control cells [7]
  EC50: 0.00037 ± 0.00012 µM
[8]
  EC50 fold-change from control: 9.23 fold
  resistance of MDR11199 cells relative to MDR1wt cells: ~2.9 fold
  EC50: 0.00341 ± 0.00147 µM
  resistance of MDR11199 cells compared with MDR1wt cells: more resistant
MDR1 (G1199A variant)
  EC50 at 72 h: 0.86 ± 0.0518 µM
MDR1 (G1199A variant); EC50 for cell growth inhibition, HEK - MDR1 G1199A, 0 month, 72 hours
  EC50 at 72 h: 0.683 ± 0.276 µM
MDR1 (G1199A variant); EC50 for cell growth inhibition, HEK - MDR1 G1199A, 1 months, 72 hours
  EC50 at 72 h: 0.667 ± 0.0875 µM
MDR1 (G1199A variant); EC50 for cell growth inhibition, HEK - MDR1 G1199A, 2 months, 72 hours
  EC50 at 72 h: 0.86 ± 0.0518 µM
MDR1 (wild type) [9]; HEK - MDR1 WT, 0 month, 72 hours, read-out: EC50 for cell growth inhibition
  EC50 at 72 h: 0.494 ± 0.115 µM
MDR1 (wild type) [9]; HEK - MDR1 WT, 1 months, 72 hours, read-out: EC50 for cell growth inhibition
  EC50 at 72 h: 0.512 ± 0.0851 µM
MDR1 (wild type) [9]; HEK - MDR1 WT, 2 months, 72 hours, read-out: EC50 for cell growth inhibition
  EC50 at 72 h: 0.71 ± 0.0333 µM
MDR1 (wild type) [9]; [18]
  EC50 at 72 h: 0.71 ± 0.0333 µM
MDR1 (G1199T variant); HEK - MDR1 G1199T, 0 month, 72 hours, read-out: EC50 for cell growth inhibition
  EC50 at 72 h: 0.246 ± 0.084 µM

## Rhodamine-123 [R123]
[13]; [20]
  Intracellular Rhodamine: 2.26 ± 0.06 Unit/mg protein
[13]; converted to HEK293
  % of control: 220%
[14]; [20]
  Intracellular Rhodamine: 1.82 ± 0.17 Unit/mg protein
[14]; converted to HEK293
  % of control: 260%
[15]; [20]
  Intracellular Rhodamine: 1.44 ± 0.12 Unit/mg protein
[15]; converted to HEK293
  % of control: 340%
HEK293 control cells
  % of control: 100%
HEK293 control cells; [20]
  Intracellular Rhodamine: 4.66 ± 0.14 Unit/mg protein
